Assays:
[1] = test system: NASH mice; test: Streptozotocin/high fat diet NASH mouse model: Sirius-red fibrosis area and NAFLD Activity Score; assay type: in vivo; conditions: n = 8
Description: Non-alcoholic steatohepatitis (NASH) is characterized by lobular inflammation, hepatocyte ballooning and degeneration progressing to liver fibrosis. […] In addition, nine non-NASH mice were fed with a normal diet and monitored.
While LYT-100 hepatocyte ballooning was similar to Vehicle, scores were lower for lobular inflammation and steatosis. (Table 6 and 7).

[2] = test system: Primary Mouse Lung Fibroblasts (PMLF); test: Survival and TGF-β-induced proliferation of Primary Mouse Lung Fibroblasts (MTT); assay type: cell-based; conditions: 500 μM, 72 hrs, FIG. 3A
Protocol: Primary Mouse lung fibroblast were prepared as follows. One lung was removed from 2 months old male BaIbC Mouse, perfused with sterile PBS, minced and incubated in 2 ml of serum free Dulbecco's Modified Eagle's Medium (DMEM) containing 100 μg/ml of collagenase I for one hour at 37° C. Each sample was centrifuged at 1500 r.p.m (revolution per minute) for 5 minutes, washed three times with PBS and the final cellular pellet was resuspended in DMEM supplemented with 10% serum and Pen/Strep, and incubated in 150 mm plates at 37 °C with 80% humidity and […]. The growth medium was removed and fresh medium was added every day for 10 days.
At the end of 10-day incubation period above, lung fibroblasts were confluent. […] One hundred μL of the growth medium was removed and 20 μL of MTT stock solution (prepared in PBS at 5.5 mg/ml concentration) was added and cells were incubated for 4 hours, then 100 μl of DMSO was added, and absorbance of developed color was monitored at 540-690 nm.

[3] = test system: L929 cells; test: Survival of L929 cells (MTT); assay type: cell-based; conditions: 500 μM, TGFb 5 ng/ml, 72 hrs, FIG. 4A
Protocol: Five thousand L929 cells were plated in completed DMEN and incubated until confluency for 3 days. Medium was removed and complete DMEM containg Prolin (20 μg/ml) and ascorbic acid (10 μM) was added. […] 100 μL of medium was removed, 20 μL MTT solution was added for 4 hrs, then 100 μl of DMSO was added, and absorbance of developed dark pink color was determined at […].

[4] = test system: L929 cells; test: TGF-induced collagen synthesis in L929 cells, 96-well plate format (SIRCOL); assay type: cell-based; conditions: 72 hrs, FIG. 4C
Protocol: Five thousand L929 cells were plated in complete DMEN and incubated until confluency for 3 days. Medium was removed and complete DMEM containg Prolin (20 μg/ml) and ascorbic acid (10 μM) was added. […] Cells were further incubated for 72 hrs. Supernatant was removed, 0.5% glutaraldehyde was added for 30 min at RT, removed, washed 3× with ddwater, 0.5 M acetic acid was added for 30 min at RT, removed, washed with water, air dried and 100 μl SIRCOL dye was added for 5 h at RT. Dye was removed, plate was washed extensively under running water, air dried and 200 μl of 0.5 M NaOH was added, plates were shaken at RT for 1 h, and OD was determined at 600 nm.

[5] = test system: L929 cells; test: TGF-induced soluble collagen synthesis in L929 cells (ELISA); assay type: cell-based; conditions: 500 μM, 72 hrs, FIG. 4D
Protocol: (§1) Five thousand L929 cells were plated in complete DMEN and incubated until confluency for 3 days.

[6] = test system: L929 cells; test: TGF-induced soluble fibronectin synthesis in L929 cells (ELISA); assay type: cell-based; conditions: 500 μM; FIG. 4E
Protocol: as §1
Fibronectin is another important component of fibrotic lungs as it is induced by TGF-β and functions both as a structural component of extra cellular matrix as well as well as a ligand for integrin receptors. Just like soluble collagen, binding of fibronectin to integrin receptors induces the proliferation of fibroblast and epithelial cells of the lungs.

[7] = test system: LPS-induced plasma TNFα; test: LPS-induced plasma TNF-α after oral pretreatment in rats; assay type: in vivo, Sprague-Dawley rats; conditions: Mean ± St. Dev., n = 6-8; for Plasma TNFα concentrations 4 hours after LPS: vehicle 693 ± 553; for Plasma TNFα concentrations 1.5 hours after LPS: vehicle 75389 ± 29107
Protocol: LPS was diluted with sterile saline to […] and sonicated at 40° C. for 20 minutes to generate a stock solution and stored at 4° C. Each day of use, the stock solution was further diluted to 0.03 mg/mL in sterile saline.
Male Sprague-Dawley rats with indwelling femoral and jugular venous catheters (n=6-8 per dose and test article group) were used in this study. […] Sixty minutes after the oral dose, 0.03 mg/kg of LPS in 1 mL/kg saline was infused into the jugular vein.
Blood samples were collected from the femoral vein into heparin-coated syringes 15 minutes prior to the LPS infusion (45 minutes after oral doses of test article), 90 minutes after the LPS infusion and 4 hours after the LPS infusion. Plasma was prepared by centrifugation of the blood samples at 14,000 rpm for 10 minutes. Plasma samples were stored at −70 ° C. until analysis.

[8] = Phase 1 food effect study Part 2 (Cohort 5), single 500 mg dose fed vs fasted; assay type: in vivo, human; conditions: LYT-100 @500 mg single dose
Protocol: The comparison will be based on Day 1, Day 2 and Day 3 PK plasma samples after the first dose of study drug on Day 1 under fast and fed conditions of Part 2.
Subjects will be admitted to the CRU on Day-1 and will fast overnight for at least 10 h.

[9] = In vitro comparative mass balance and metabolite studies in liver microsomes; assay type: in vitro ADME, human, rat, dog, mouse, monkey
Description: Both LYT-100 and pirfenidone share a common major metabolite.

[10] = test system: ICAM-1; vascular hyperpermeability; TGF-β and downstream signaling; test: Other studies for pirfenidone mechanisms in acute and chronic interstitial lung diseases
[11] = rat, in vivo
Protocol: The original male TK animals received 1000 mg/kg of SD-559 on Day 1 and continued on study. The protocol was amended to add additional TK male animals in Group 6 for Day 1 collection of TK samples at 875 mg/kg.
Blood samples were collected from 3 subsets of 3 animals/sex on Day 1 and Day 28 at pre-dose, 0.25, 0.5, 1, 2, 4. 8 and 24 hours (hr) post-dose for groups 2 to 6 and from one subset of 3 animals/sex at 0.25 hr post-dose for the vehicle group (group 1). […] Non-compartmental analysis (NCA) of plasma concentration data was conducted using Phoenix® WinNonlin®, version 8.0.

[12] = human, in vivo, po
Description: Following screening, eligible healthy volunteer subjects were admitted to a single clinical study site and were randomized to 1 of 2 treatment sequences. […] In each period, a standardized breakfast was provided to subjects prior to administration of study drug (to compare the PK profiles in the clinically relevant fed state) and plasma samples were collected over a 48-hour period after dosing for evaluation of PK. Dosing between the 2 periods was separated by a minimum of 7 days. Subjects completed the study upon completion of the 48-hour post-dose assessments following dosing period 2.
All capsules were identical in size, shape, and external color.

[13] = human, in vivo
Protocol: (§2) Up to 5 dosing cohorts are planned in Part 1.
(§3) Additional cohorts and intermediate doses may be selected in lieu of predefined doses as noted and in accordance with safety and tolerability responses, but doses will not exceed 1000 mg BID or a total daily dose of 2000 mg.
(§4) A standardised lunch will be served ≥4 h post breakfast and ≥4 h prior to dinner. An evening snack will be served ≥3 h following evening study medication administration. No additional fluids will be allowed during the 1 h pre- and post-doses. On Day 6, subjects will replicate mealtimes as scheduled on Day 1-5.
(§5) Plasma PK parameters (non-compartmental or compartmental analysis as appropriate) will include, but are not limited to: • Following single dose: Tmax, tlag, Cmax, AUC0-4, AUC0-last, t1/2, AUC0-inf, lambda z, %AUCext, CL/F, Vz/F, Cmax/D, AUC0-last/D, AUC0-inf/D and MRT (D is dose) • After repeated doses: Ctrough, Ctrough/D • Following repeated doses on last day: Tmax, Cmax, Cavg, tlag, t1/2, AUC0-4, AUC0-last; AUC0-inf, lambda z, %AUCext, CLss/F, Vzss/F, MRT, PTF, Rac(AUC), Rac(Cmax), Cmax/D, AUClast/D, AUC0-inf/D and Rae (accumulation ratio).

[14] = Phase 1 multiple ascending dose (MAD) study Part 1, healthy volunteers (PK and safety); conditions: 100 to 1000 mg BID, 5 days
Protocol: as §2, §3, §4, §5

[15] = 30 mg/kg oral pretreatment 1 hour prior to LPS injection
[16] = 100 mg/kg oral pretreatment 1 hour prior to LPS injection
[17] = 300 mg/kg oral pretreatment 1 hour prior to LPS injection

[2H]C([2H])([2H])c1ccc(=O)n(-c2ccccc2)c1 [LYT-100, 5-(methyl-d3)-1-phenylpyridin-2-(1H)-one]
Steatosis score 0: number of animals ([1]; NAS component, score 0 = <5%, LYT-100 30 mg/kg twice daily): 4 | Steatosis score 1: number of animals ([1]; NAS component, score 1 = 5-33%, LYT-100 30 mg/kg twice daily): 3 | Lobular Inflammation score 1: number of animals ([1]; NAS component, score 1 = <2 foci/200x, LYT-100 30 mg/kg twice daily): 5 | Lobular Inflammation score 2: number of animals ([1]; NAS component, score 2 = 2-4 foci/200x, LYT-100 30 mg/kg twice daily): 3 | Steatosis score 2: number of animals ([1]; NAS component, score 2 = >33%-66%, LYT-100 30 mg/kg twice daily): 1 | Hepatocyte ballooning score 2: number of animals ([1]; NAS component, score 2 = Many cells/prominent ballooning, LYT-100 30 mg/kg twice daily): 8 | Fibrosis Area (%) (mean ± SD) ([1]; Sirius-red stained liver sections, LYT-100 30 mg/kg orally twice daily from 6-9 weeks of age, p < 0.01 vs Vehicle (1.02 ± 0.20)): 0.64 ± 0.31 % | Effect on survival of PMLF alone [2]: did not affect the survival | Effect on survival of L929 cells [3]: does not affect survival | Effect on TGF-β-induced total collagen levels ([4]; 500 μM 1 h prior to TGF-β 5 ng/ml): inhibited or reduced | Effect on total collagen level in the absence of TGF-β induction ([4]; 500 μM): signficantly inhibited or reduced | Effect on soluble collagen levels in the absence of TGF-β-induction [5]: signficantly reduced | Effect on TGF-β-induced soluble collagen levels ([5]; TGF-β 5 ng/ml): significantly inhibits | Effect on soluble fibronectin levels, in the absence and presence of TGF-β-induction [6]: signficantly reduced | Plasma TNFα concentrations 4 hours after LPS [7, 15]: 274 ± 95 pg/mL | Plasma TNFα concentrations 1.5 hours after LPS [7, 15]: 46382 ± 23254 pg/mL | Plasma TNFα concentrations 4 hours after LPS [7, 16]: 129 ± 65 pg/mL | Plasma TNFα concentrations 1.5 hours after LPS [7, 16]: 6403 ± 4812 pg/mL | Plasma TNFα concentrations 4 hours after LPS [7, 17]: 79 ± 46 pg/mL | Plasma TNFα concentrations 1.5 hours after LPS [7, 17]: 3162 ± 2668 pg/mL | AUC, % Change Fed vs Fasted [8]: −19% | Cmax, % Change Fed vs Fasted [8]: −23% | Tmax, % Change Fed vs Fasted [8]: +25% | Novel metabolites through deuteration ([9]; human, rat, dog, mouse, and monkey liver microsomes): did not introduce novel | Rate of metabolism compared with pirfenidone ([9]; liver microsomes): occurred more slowly | Effect on ICAM-1 [10]: downregulates | Effect on TGF-β and downstream signaling [10]: suppresses | Effect on vascular hyperpermeability [10]: reduces | Accumulation after multiple dosing for 28 Days [11]: No accumulation | Tolerability of single doses [12]: well tolerated | Dose dependence of AUC96-108 across all dose Cohorts [13]: linear dose proportionality | Dose limiting toxicities [13]: no dose limiting toxicities observed | Grading of adverse events [13]: mild and transient | AEs considered possibly related to treatment ([13]; 5 days): 33 | Most common AE, headache: subjects ([13]; 5 days): 25% | Subjects who experienced adverse events ([13]; 5 days): 33 subjects | Total adverse events (AEs) ([13]; 5 days): 72 | Maximally tolerated dose [14]: no maximally tolerated dose was reached

— patent publication US20230129866A1 (PureTech LYT 100, Inc., priority 2020, published 2023)
